Measurements reported in US20210261642A1, “SOLUBILITY OF GLP-1 PEPTIDE” (Novo Nordisk A/S, priority 2017, published 2021).

Assay: Assay (I): Determination of Solubility (96-well plate, pH 3.0-11.0, organic solvent 0-70% w/w, UV absorption at 280 nm)
Type: physicochemical
Conditions: Method 2 (precipitation), 5° C.
Method: Assay (I): Determination of Solubility
96-Well Plate Preparation
96-well plates containing target peptide in a solid form were prepared in one of two ways:
Method 1 (evaporation): Addition of 100 μl stock solution of said peptide at a concentration of 4-6 mg/ml to each well of a 96-well half area plate (150 μl well size). Subsequently the solvent was evaporated by applying a vacuum until the solvent was completely removed.
Method 2 (precipitation): Addition of a certain volume of a stock solution of said peptide containing to each well of a 96-well half area plate followed by the addition of a certain volume of concentrated phosphoric acid to obtain a pH of 4.6 followed by addition of a certain volume of ethanol resulting in a final ethanol concentration of 20% v/v. Subsequently the plate was stored at 4° C. for 1 h and then centrifuged at 4,000 rpm for 20 min. Finally the supernatant was removed. The concentration of the stock solution was chosen in a way that the final amount of peptide after supernatant removal was >0.4 mg per well.
In both cases the stock solution was prepared by adding de-ionized water to a certain amount of powder of said peptide followed by a stepwise addition of small amounts of a concentrated sodium hydroxide solution until said peptide was completely in solution.
To determine solubility of a target peptide at different pH and organic solvent concentrations, two different buffer systems were used in independent experiments to cover the whole range from pH 3.0 to pH 11.0. Buffer system 1 covers pH 3.0-7.5 and buffer system 2 covers pH 7.5-11.0. For each buffer system 96 different solvent compositions were premixed in the following way: • 1. A low pH buffer (adjusted to either pH 3.0 or pH 7.5) and a high pH buffer (adjusted to either pH 7.5 or pH 11.0) were mixed at 8 different ratios to obtain values between pH 3.0 and pH 7.5 or pH 7.5 and pH 11.0, respectively. The total volume after mixing was 300 μl. • 2. 12 different amounts of organic solvent were then added to these buffers to obtain organic solvent (e.g. ethanol) concentrations between 0 and 70% w/w. • 3. Water was then added to obtain a total weight of 1.0 g of solvent in each well.
After preparing the 96 different solvent systems, 100 μl of each system was transferred to the 96-well plate containing the solid form of the target peptide (prepared as described in the section “96-well plate preparation”). The plate was then stored at a given temperature (between 5° C. and 70° C.) for a given time on a rotating shaker set to 400 rpm. At regular time intervals the plate was centrifuged (4,000 rpm for 10 min) and a 10 μl sample was taken from each well. The samples were then analysed by UV absorption at 280 nm for peptide quantification. Peptide concentration results are given as UV absorption at 280 nm of the sample subtracted UV absorption at 280 nm of a well comprising 10 μl water.
The buffers used were as follows: • Buffer system 1 (for the pH range from pH 3.0-7.5)
• Buffer system 2 (for the pH ranae from pH 7.5-11.0)
Solubility of liraglutide was determined using Assay (I) described herein. Liraglutide was prepared using Method 1 (evaporation) or Method 2 (precipitation) as described in subsection “96-well plate preparation”.

Measured: GLP-1 peptide concentration

CCCCCCCCCCCCCCCC(=O)N[C@@H](CCC(=O)NCCCC[C@H](NC(=O)[C@H](C)NC(=O)[C@H](C)NC(=O)[C@H](CCC(N)=O)NC(=O)CNC(=O)[C@H](CCC(=O)O)NC(=O)[C@H](CC(C)C)NC(=O)[C@H](Cc1ccc(O)cc1)NC(=O)[C@H](CO)NC(=O)[C@H](CO)NC(=O)[C@@H](NC(=O)[C@H](CC(=O)O)NC(=O)[C@H](CO)NC(=O)[C@@H](NC(=O)[C@H](Cc1ccccc1)NC(=O)[C@@H](NC(=O)CNC(=O)[C@H](CCC(=O)O)NC(=O)[C@H](C)NC(=O)[C@@H](N)Cc1cnc[nH]1)[C@@H](C)O)[C@@H](C)O)C(C)C)C(=O)N[C@@H](CCC(=O)O)C(=O)N[C@@H](Cc1ccccc1)C(=O)N[C@H](C(=O)N[C@@H](C)C(=O)N[C@@H](Cc1c[nH]c2ccccc12)C(=O)N[C@@H](CC(C)C)C(=O)N[C@H](C(=O)N[C@@H](CCCNC(=N)N)C(=O)NCC(=O)N[C@@H](CCCNC(=N)N)C(=O)NCC(=O)O)C(C)C)[C@@H](C)CC)C(=O)O [liraglutide, Arg34,Lys26-(N-epsilon-(gamma-L-glutamyl(N-alfa-hexadecanoyl)))-GLP-1(7-37)]
1.1 mg/mL: MeCN 57.3% w/w, pH 10.00, 24 h, after removal of outliers | MeCN 57.3% w/w, pH 10.00, 24 h, before removal of outliers
0.5 mg/mL: MeCN 57.3% w/w, pH 9.50, 5 min, before removal of outliers | MeCN 57.3% w/w, pH 10.50, 5 min, after removal of outliers | MeCN 57.3% w/w, pH 10.50, 5 min, before removal of outliers | MeCN 57.3% w/w, pH 11.00, 5 min, after removal of outliers | MeCN 57.3% w/w, pH 11.00, 5 min, before removal of outliers | MeCN 63.6% w/w, pH 8.00, 5 min, after removal of outliers | MeCN 63.6% w/w, pH 8.00, 5 min, before removal of outliers | MeCN 63.6% w/w, pH 8.50, 5 min, after removal of outliers | MeCN 63.6% w/w, pH 8.50, 5 min, before removal of outliers | MeCN 63.6% w/w, pH 9.00, 5 min, after removal of outliers | MeCN 63.6% w/w, pH 9.00, 5 min, before removal of outliers
>4.0 mg/mL: MeCN 57.3% w/w, pH 9.50, 180 min, after removal of outliers | MeCN 57.3% w/w, pH 9.50, 180 min, before removal of outliers | MeCN 57.3% w/w, pH 10.00, 180 min, after removal of outliers | MeCN 57.3% w/w, pH 10.00, 180 min, before removal of outliers | MeCN 57.3% w/w, pH 10.50, 180 min, after removal of outliers | MeCN 57.3% w/w, pH 10.50, 180 min, before removal of outliers | MeCN 57.3% w/w, pH 11.00, 180 min, after removal of outliers | MeCN 57.3% w/w, pH 11.00, 180 min, before removal of outliers | MeCN 63.6% w/w, pH 9.00, 24 h, after removal of outliers | MeCN 63.6% w/w, pH 9.00, 24 h, before removal of outliers
1.7 mg/mL: MeCN 57.3% w/w, pH 10.50, 24 h, after removal of outliers | MeCN 57.3% w/w, pH 10.50, 24 h, before removal of outliers | MeCN 63.6% w/w, pH 9.00, 180 min, after removal of outliers | MeCN 63.6% w/w, pH 9.00, 180 min, before removal of outliers
1.2 mg/mL: MeCN 63.6% w/w, pH 8.00, 180 min, after removal of outliers | MeCN 63.6% w/w, pH 8.00, 180 min, before removal of outliers | MeCN 63.6% w/w, pH 9.50, 24 h, after removal of outliers | MeCN 63.6% w/w, pH 9.50, 24 h, before removal of outliers
3.1 mg/mL: MeCN 63.6% w/w, pH 8.50, 180 min, after removal of outliers | MeCN 63.6% w/w, pH 8.50, 180 min, before removal of outliers | MeCN 63.6% w/w, pH 8.50, 24 h, after removal of outliers | MeCN 63.6% w/w, pH 8.50, 24 h, before removal of outliers
2.4 mg/mL: MeCN 63.6% w/w, pH 7.50, 24 h, before removal of outliers
3.2 mg/mL: MeCN 63.6% w/w, pH 8.00, 24 h, after removal of outliers | MeCN 63.6% w/w, pH 8.00, 24 h, before removal of outliers
2.9 mg/mL: MeCN 63.6% w/w, pH 9.50, 180 min, after removal of outliers | MeCN 63.6% w/w, pH 9.50, 180 min, before removal of outliers
2.5 mg/mL: MeCN 57.3% w/w, pH 9.50, 24 h, after removal of outliers | MeCN 57.3% w/w, pH 9.50, 24 h, before removal of outliers
0.6 mg/mL: MeCN 63.6% w/w, pH 9.50, 5 min, after removal of outliers | MeCN 63.6% w/w, pH 9.50, 5 min, before removal of outliers
1.0 mg/mL: MeCN 63.6% w/w, pH 7.50, 180 min, before removal of outliers
3.6 mg/mL: MeCN 57.3% w/w, pH 11.00, 24 h, after removal of outliers | MeCN 57.3% w/w, pH 11.00, 24 h, before removal of outliers
0.4 mg/mL: MeCN 57.3% w/w, pH 10.00, 5 min, after removal of outliers | MeCN 57.3% w/w, pH 10.00, 5 min, before removal of outliers | MeCN 63.6% w/w, pH 7.50, 5 min, before removal of outliers | MeCN 63.6% w/w, pH 10.00, 5 min, after removal of outliers
